Experimental data published in PubChem BioAssay (NCI).
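Compound exposure: 48 hours, 5 concentrations, 96-well plates. Here, GI50 denotes the concentration required for 50% inhibition of growth. TGI is the concentration that stops growth completely.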

Columns and labels:
Assay in all cases: growth of human tumour cells (NCI), 48 h
OVCAR-8 ovarian = system: OVCAR-8 ovarian
A498 renal = system: A498 renal
DU-145 prostate = system: DU-145 prostate
NCI-H522 lung = system: NCI-H522 lung
UO-31 renal = system: UO-31 renal
K-562 leukemia = system: K-562 leukemia
SK-OV-3 ovarian = system: SK-OV-3 ovarian
NCI/ADR-RES ovarian = system: NCI/ADR-RES ovarian
RXF 393 renal = system: RXF 393 renal
HS 578T breast = system: HS 578T breast
KM12 colon = system: KM12 colon
CAKI-1 renal = system: CAKI-1 renal
HOP-92 NSCLC = system: HOP-92 NSCLC
SW-620 colon = system: SW-620 colon
HL-60(TB) leukemia = system: HL-60(TB) leukemia
RPMI-8226 leukemia = system: RPMI-8226 leukemia
CCRF-CEM leukemia = system: CCRF-CEM leukemia
TK-10 renal = system: TK-10 renal
ACHN renal = system: ACHN renal
SF-268 CNS = system: SF-268 CNS
OVCAR-3 ovarian = system: OVCAR-3 ovarian
UACC-62 melanoma = system: UACC-62 melanoma
PC-3 prostate = system: PC-3 prostate
NCI-H23 lung = system: NCI-H23 lung
SK-MEL-28 melanoma = system: SK-MEL-28 melanoma
SF-539 CNS = system: SF-539 CNS
SNB-75 CNS = system: SNB-75 CNS
MOLT-4 leukemia = system: MOLT-4 leukemia
COLO 205 colon = system: COLO 205 colon
SNB-19 CNS = system: SNB-19 CNS
U251 CNS = system: U251 CNS
SN12C renal = system: SN12C renal
A549 NSCLC = system: A549 NSCLC
HCT-15 colon = system: HCT-15 colon
NCI-H460 lung = system: NCI-H460 lung
HCC-2998 colon = system: HCC-2998 colon
786-0 renal = system: 786-0 renal
MALME-3M melanoma = system: MALME-3M melanoma
SR leukemia = system: SR leukemia
MDA-MB-435 = system: MDA-MB-435
NCI-H226 lung = system: NCI-H226 lung
SK-MEL-2 melanoma = system: SK-MEL-2 melanoma
BT-549 breast = system: BT-549 breast
HCT-116 colon = system: HCT-116 colon
SF-295 CNS = system: SF-295 CNS
LOX IMVI melanoma = system: LOX IMVI melanoma
M14 melanoma = system: M14 melanoma
HOP-62 NSCLC = system: HOP-62 NSCLC
OVCAR-4 ovarian = system: OVCAR-4 ovarian
UACC-257 melanoma = system: UACC-257 melanoma
MDA-MB-231 breast = system: MDA-MB-231 breast
EKVX NSCLC = system: EKVX NSCLC
SK-MEL-5 melanoma = system: SK-MEL-5 melanoma
OVCAR-5 ovarian = system: OVCAR-5 ovarian
HT29 colon = system: HT29 colon
IGROV1 ovarian = system: IGROV1 ovarian
MCF7 breast = system: MCF7 breast

NC(N)=Nc1ccc(Oc2cccc(Nc3ccc(Cl)cc3)c2)cn1 gave a GI50 (OVCAR-8 ovarian) of 1970 nM, a TGI (OVCAR-8 ovarian) of 4460 nM and a GI50 (A498 renal) of 1170 nM. For the same compound, the TGI (A498 renal) was 2660 nM, the GI50 (DU-145 prostate) was 1760 nM and the TGI (DU-145 prostate) was 3270 nM. It also gave a GI50 (NCI-H522 lung) of 1530 nM, a TGI (NCI-H522 lung) of 3130 nM and a GI50 (UO-31 renal) of 1710 nM. The TGI (UO-31 renal) was 3280 nM, the GI50 (K-562 leukemia) was 2660 nM and the TGI (K-562 leukemia) was 8210 nM. For the same compound, the GI50 (SK-OV-3 ovarian) was 2110 nM, the TGI (SK-OV-3 ovarian) was 4160 nM and the GI50 (NCI/ADR-RES ovarian) was 4050 nM. For the same compound, the TGI (NCI/ADR-RES ovarian) was 20500 nM, the GI50 (RXF 393 renal) was 1780 nM and the TGI (RXF 393 renal) was 3370 nM. It also gave a GI50 (HS 578T breast) of 1990 nM, a TGI (HS 578T breast) of 4520 nM and a GI50 (KM12 colon) of 2080 nM. The TGI (KM12 colon) was 4580 nM, the GI50 (CAKI-1 renal) was 1640 nM and the TGI (CAKI-1 renal) was 3170 nM. For the same compound, the GI50 (HOP-92 NSCLC) was 1070 nM, the TGI (HOP-92 NSCLC) was 2390 nM and the GI50 (SW-620 colon) was 1830 nM. For the same compound, the TGI (SW-620 colon) was 3550 nM, the GI50 (HL-60(TB) leukemia) was 2520 nM and the TGI (HL-60(TB) leukemia) was 4750 nM. The GI50 (RPMI-8226 leukemia) was 2020 nM, the TGI (RPMI-8226 leukemia) was 5080 nM and the GI50 (CCRF-CEM leukemia) was 2040 nM. The TGI (CCRF-CEM leukemia) was 5270 nM, the GI50 (TK-10 renal) was 1690 nM and the TGI (TK-10 renal) was 3300 nM. For the same compound, the GI50 (ACHN renal) was 1730 nM, the TGI (ACHN renal) was 3130 nM and the GI50 (SF-268 CNS) was 1720 nM. For the same compound, the TGI (SF-268 CNS) was 3750 nM, the GI50 (OVCAR-3 ovarian) was 1800 nM and the TGI (OVCAR-3 ovarian) was 3630 nM. The GI50 (UACC-62 melanoma) was 1740 nM, the TGI (UACC-62 melanoma) was 3280 nM and the GI50 (PC-3 prostate) was 1460 nM. It also gave a TGI (PC-3 prostate) of 2840 nM, a GI50 (NCI-H23 lung) of 1660 nM and a TGI (NCI-H23 lung) of 3240 nM. It also gave a GI50 (SK-MEL-28 melanoma) of 1670 nM, a TGI (SK-MEL-28 melanoma) of 3120 nM and a GI50 (SF-539 CNS) of 1650 nM. It also gave a TGI (SF-539 CNS) of 3130 nM, a GI50 (SNB-75 CNS) of 1270 nM and a TGI (SNB-75 CNS) of 2570 nM.
For CC1OC(O[C@@H]2C(O)C(CO)OC(O[C@H]3COC(O[C@H]4CC[C@]5(C)[C@H]6CC[C@]78OC[C@@]9(CC[C@](C)(C=O)C[C@H]97)[C@H](O)C[C@@]8(C)[C@]6(C)CC[C@H]5C4(C)C)[C@@H](OC4OC(CO)[C@@H](O)[C@@H](O)[C@@H]4O)[C@@H]3O)[C@H]2OC2OC[C@@H](O)[C@@H](O)[C@@H]2O)[C@@H](O)[C@@H](O)[C@H]1O (stereo partly specified), the GI50 (OVCAR-8 ovarian) was 2100 nM, the TGI (OVCAR-8 ovarian) was 4280 nM and the GI50 (MOLT-4 leukemia) was 1130 nM. The TGI (MOLT-4 leukemia) was 3980 nM, the GI50 (A498 renal) was 2260 nM and the TGI (A498 renal) was 3980 nM. It also gave a GI50 (COLO 205 colon) of 1620 nM, a TGI (COLO 205 colon) of 3160 nM and a GI50 (SNB-19 CNS) of 1810 nM. For the same compound, the TGI (SNB-19 CNS) was 3710 nM, the GI50 (U251 CNS) was 2120 nM and the TGI (U251 CNS) was 3870 nM. For the same compound, the GI50 (SN12C renal) was 1700 nM, the TGI (SN12C renal) was 3510 nM and the GI50 (A549 NSCLC) was 2110 nM. The TGI (A549 NSCLC) was 4040 nM, the GI50 (DU-145 prostate) was 1950 nM and the TGI (DU-145 prostate) was 3710 nM. The GI50 (HCT-15 colon) was 2230 nM, the TGI (HCT-15 colon) was 5010 nM and the GI50 (NCI-H522 lung) was 1970 nM. For the same compound, the TGI (NCI-H522 lung) was 3750 nM, the GI50 (NCI-H460 lung) was 1880 nM and the TGI (NCI-H460 lung) was 3830 nM. It also gave a GI50 (UO-31 renal) of 1350 nM, a TGI (UO-31 renal) of 2820 nM and a GI50 (HCC-2998 colon) of 1950 nM. The TGI (HCC-2998 colon) was 3520 nM, the GI50 (K-562 leukemia) was 2200 nM and the TGI (K-562 leukemia) was 5680 nM. The GI50 (786-0 renal) was 2140 nM, the TGI (786-0 renal) was 3970 nM and the GI50 (MALME-3M melanoma) was 1740 nM. The TGI (MALME-3M melanoma) was 3510 nM, the GI50 (SR leukemia) was 357 nM and the TGI (SR leukemia) was 1240 nM. It also gave a GI50 (SK-OV-3 ovarian) of 1920 nM, a TGI (SK-OV-3 ovarian) of 3490 nM and a GI50 (MDA-MB-435) of 1850 nM. The TGI (MDA-MB-435) was 3570 nM, the GI50 (NCI-H226 lung) was 1890 nM and the TGI (NCI-H226 lung) was 3980 nM. The GI50 (NCI/ADR-RES ovarian) was 1970 nM, the TGI (NCI/ADR-RES ovarian) was 4150 nM and the GI50 (SK-MEL-2 melanoma) was 2330 nM. The TGI (SK-MEL-2 melanoma) was 4240 nM, the GI50 (RXF 393 renal) was 811 nM and the TGI (RXF 393 renal) was 2400 nM. For the same compound, the GI50 (BT-549 breast) was 1770 nM, the TGI (BT-549 breast) was 3500 nM and the GI50 (HCT-116 colon) was 1480 nM. The TGI (HCT-116 colon) was 2980 nM, the GI50 (SF-295 CNS) was 1760 nM and the TGI (SF-295 CNS) was 3310 nM. The GI50 (LOX IMVI melanoma) was 1740 nM, the TGI (LOX IMVI melanoma) was 3390 nM and the GI50 (M14 melanoma) was 1710 nM. The TGI (M14 melanoma) was 3400 nM, the GI50 (HS 578T breast) was 1920 nM and the TGI (HS 578T breast) was 4140 nM. For the same compound, the GI50 (HOP-62 NSCLC) was 1760 nM, the TGI (HOP-62 NSCLC) was 3470 nM and the GI50 (OVCAR-4 ovarian) was 1840 nM. For the same compound, the TGI (OVCAR-4 ovarian) was 3930 nM, the GI50 (CAKI-1 renal) was 1890 nM and the TGI (CAKI-1 renal) was 3480 nM. The GI50 (HOP-92 NSCLC) was 982 nM, the TGI (HOP-92 NSCLC) was 2620 nM and the GI50 (SW-620 colon) was 1840 nM. It also gave a TGI (SW-620 colon) of 3700 nM, a GI50 (HL-60(TB) leukemia) of 598 nM and a TGI (HL-60(TB) leukemia) of 2190 nM. For the same compound, the GI50 (UACC-257 melanoma) was 2030 nM, the TGI (UACC-257 melanoma) was 3770 nM and the GI50 (RPMI-8226 leukemia) was 1730 nM. It also gave a TGI (RPMI-8226 leukemia) of 4280 nM, a GI50 (MDA-MB-231 breast) of 1760 nM and a TGI (MDA-MB-231 breast) of 3510 nM. For the same compound, the GI50 (EKVX NSCLC) was 1930 nM, the TGI (EKVX NSCLC) was 3840 nM and the GI50 (CCRF-CEM leukemia) was 1210 nM. For the same compound, the TGI (CCRF-CEM leukemia) was 4340 nM, the GI50 (SK-MEL-5 melanoma) was 2380 nM and the TGI (SK-MEL-5 melanoma) was 5810 nM. For the same compound, the GI50 (TK-10 renal) was 2790 nM, the TGI (TK-10 renal) was 4510 nM and the GI50 (OVCAR-5 ovarian) was 1860 nM. The TGI (OVCAR-5 ovarian) was 3420 nM, the GI50 (ACHN renal) was 1500 nM and the TGI (ACHN renal) was 2920 nM. It also gave a GI50 (SF-268 CNS) of 1910 nM, a TGI (SF-268 CNS) of 3910 nM and a GI50 (OVCAR-3 ovarian) of 1980 nM. It also gave a TGI (OVCAR-3 ovarian) of 3820 nM, a GI50 (UACC-62 melanoma) of 1970 nM and a TGI (UACC-62 melanoma) of 3820 nM. The GI50 (PC-3 prostate) was 1950 nM, the TGI (PC-3 prostate) was 3640 nM and the GI50 (NCI-H23 lung) was 1890 nM. The TGI (NCI-H23 lung) was 3740 nM, the GI50 (HT29 colon) was 1990 nM and the TGI (HT29 colon) was 4020 nM. For the same compound, the GI50 (IGROV1 ovarian) was 1820 nM, the TGI (IGROV1 ovarian) was 3930 nM and the GI50 (SK-MEL-28 melanoma) was 1690 nM. For the same compound, the TGI (SK-MEL-28 melanoma) was 3290 nM, the GI50 (SF-539 CNS) was 1610 nM and the TGI (SF-539 CNS) was 3100 nM. For the same compound, the GI50 (MCF7 breast) was 1980 nM, the TGI (MCF7 breast) was 4110 nM and the GI50 (SNB-75 CNS) was 1700 nM. The TGI (SNB-75 CNS) was 3250 nM.
